For data set [1], the system named is platelet aggregation induced by ADP, epinephrine and collagen. As to conditions: cited from earlier work.
For data set [2] the following is noted: cited from earlier work.
The conditions of data set [3]: cited from earlier work. The source holds these as a separate data set.
For data set [4] the following is noted: 1 gm at the end of the surgery; 405 abdominal surgery patients; cited from earlier work.
The next data set has as its system platelet function. In words: Bleeding time and bleeding area before and after tumescent lidocaine exposure (preliminary experiment). The format is in vivo, human. As for the experimental part: The skin of the left and right thigh of a subject is cleaned and allowed to dry. […] Simultaneous 4 mm deep puncture wounds are made to the same area of the left and right thighs with disposable lancets. The puncture sites are blotted with filter paper every 30 seconds, until bleeding stops and the bleeding time for each thigh is recorded. The bleeding times of the left and right thigh are compared to determine if administration of TLAnti increases bleeding time. Normal bleeding time measured by the Duke method is 1 to 3 minutes.
In a preliminary experiment, bleeding time and bleeding area were measured in a patient before and after tumescent lidocaine exposure. […] In contrast, there was a 40% increase in Average Bleeding Area (BA). Bleeding Area (BA) was a more sensitive and a more specific test for platelet function compared to Bleeding Time (BT). […] In otherwords, TAD may reduce the risk of both post-operative surgical site infection and post-operative thromboembolism.

For data set [5] the following is noted: routine local anesthesia with lidocaine; cited from earlier work.
Data set [6] has as its system Staphyloccus aureus (MRSA) ATCC 33592. Nature of the data set: Minimum Bactericidal Concentration (MBC). The format is cell-based, Staphylococcus aureus. From the text:
Determinations of MBC followed the method described in “Report on the Working Party on Antibiotic Sensitivity Testing of the British Society of Antimicrobial Chemotherapy: A Guide to Sensitivity Testing.”

The test system of a further data set is S. aureus. The following applies: effect increases with greater duration of exposure; cited from earlier work.
For data set [7] the following is noted: cited from earlier work. The source holds these as a separate data set.
The test system of data set [8] is Staphyloccus aureus (MRSA) ATCC 33592. Nature of the data set: Minimum Inhibitory Concentration (MIC). As to conditions: Staphylococcus aureus.
Protocol: Following inoculation, survival of test microorganisms was determined.
The next data set is described as follows: clinical. As to conditions: human, in vivo. As for the experimental part:
A clinical pharmacologic investigation was conducted to compare the pharmacokinetic advantages of two modes of systemic antibiotic delivery, Tumescent antibiotic delivery (TAD), which involves the delivery of a relatively large volume of an antibiotic-containing solution to the subcutaneous compartment, and intravenous antibiotic delivery (IVAD), which results in direct delivery of antibiotics to the blood stream, for prophylaxis of SSI.
With Institutional Review Board (IRB) approval, the absorption pharmacokinetics of tumescent antibiotic delivery (TAD) and intravenous antibiotic delivery (IVAD) were tested in human subjects and the antibiotic delivery modes were evaluated with respect to the area under the curve (AUC) of antibiotic concentration as a function of time and peak antibiotic concentration (Cmax) in serum and TISF. 4 female subjects participated in at least one study, one subject volunteered for 2 separate studies. 5 studies were conducted: 3 involved TAD to the abdomen, 1 involved TAD to the hips and outer thighs and 1 involved TAD to the breasts. […] Each of the 5 studies consisted of 2 to 3 pharmacokinetic procedures, for a total of 14 procedures. Any procedures conducted on an individual subject were separated by at least one week. In 13 procedures only IVAD or TAD, was used. In one procedure both IVAD and TAD were used concurrently, with IVAD started and finished within five minutes after completing TAD.
TAD was conducted as described herein. Following TAD, sequential 10 ml samples of tumescent adipose tissue were obtained using a hand-held syringe-liposuction technique. Sampling began immediately after completing the TAD infiltration (T0), and continuing until the patients reported significant discomfort. Liposuction aspirate samples were obtained at 0, 1, 2, 3, 4, 6, and 8 hours in all procedures; in 4 TAD procedures, sampling continued until 10 hours. Sequential serum samples for measurement of antibiotic concentration in serum after TAD ([Serum]TAD) were obtained simultaneously.
For IVAD, the antibiotic was delivered into an antecubital vein. Following IVAD, serum samples were taken from the contralateral arm via an indwelling venous catheter beginning immediately after completion of the antibiotic delivery (T0).
The samples of liposuction aspirate were centrifuged to obtain infranatant TISF, which comprises minimally blood-tinged tissue-free residual tumescent solution.
AUC (Area Under the Curve) of drug concentration as a function of time, a metric for measuring the cumulative exposure to an individual drug within a specified tissue, was estimated for time T0 to time Tn using the trapezoid rule: […]

Where [9] appears, read: after vs before tumescent lidocaine exposure.
[10] abbreviates: post-op tumescent lidocaine exposure, Pt# 1, tests T3, T4.

Converted amounts (≈) assume the structure as drawn. “And” between values parts separate entries of the source, which are not always exact repeats. Identical values can stand only once. Like-named read-outs stand apart in the source and are kept apart here.

With `CCCCN1CCCCC1C(=O)Nc1c(C)cccc1C` (stereo not drawn) [bupivacaine], the “platelet aggregation induced by ADP” value in data set [1] is recorded as “inhibit”.

Consider `CO[C@@]1(NC(=O)Cc2cccs2)C(=O)N2C(C(=O)O)=C(COC(N)=O)CS[C@@H]21` [cefoxitin], for which the protein binding result in data set [2] is “approximately 72%”. The “subjects with penetration P=AUC[ISF]IVAD/AUC[SERUM]IVAD less than 0.1” value is 3/10 in data set [3] (normal controls) and 8/10 in [3] (obese subjects). In addition, the “Penetration PR” value in [3] (normal weight volunteers, microdialysis) was 0.37±0.26. Also, the “degree of antibiotic penetration into ISF relative to normal weight subjects” value in data set [3] (obese patients) is listed as 22%.

`O=C(Cc1cccs1)N[C@@H]1C(=O)N2C(C(=O)[O-])=C(C[n+]3ccccc3)CS[C@H]12` [cephaloridine]: in data set [4], the “incidence of wound infection, intravenous vs intra incisional” value was “no significant difference”.

For the molecule `CCN(CC)CC(=O)Nc1c(C)cccc1C` [Lidocaine], the “change in Average Bleeding Time (BT)” value with platelet function (setting [9]) is given as “essentially no change”. In addition, the “increase in Average Bleeding Area (BA)” value in the data set with platelet function (setting [9]) is recorded as 40%. Besides, the “Lidocaine BA (Average Bleeding Area)” value in the data set with platelet function (post-op tumescent lidocaine exposure, Control BA = 541) was “BA = 759”. Also, the “Lidocaine BT (Average Bleeding Time)” value with platelet function (post-op tumescent lidocaine exposure, Control BT = 6) is reported as “BT = 5.75”. Besides, in the data set on platelet function (setting [10]), the “Bleeding Area BA” value was 791.81 and 726.03. Moreover, the “Bleeding Time BT × 2” value in the data set with platelet function (setting [10]) is 10 and 13. The “duration of local anesthesia” value in [5] is about 2 h. The “MRSA growth (MBC test)” value in data set [6] (Day 1, Lidocaine 1,000 mg/L, MRSA inoculum 4.7 × 10^5 CFU/ml) is on record as “+”; in [6] (Day 2, Lidocaine 1,000 mg/L, MRSA inoculum 4.4 × 10^5 CFU/ml) it was “+”; in data set [6] (Day 2, Lidocaine 5,000 mg/L, MRSA inoculum 4.4 × 10^5 CFU/ml) it was “+”; in data set [6] (Day 2, Lidocaine 10,000 mg/L, MRSA inoculum 4.4 × 10^5 CFU/ml), 0. Also, the “bactericidal activity in vitro” value in the data set on S. aureus is on record as “bactericidal”. The “dosage limitation approved by the FDA for infiltration local anesthesia” value in [7] (commercial lidocaine (1%=10 gm/L) with epinephrine (1:100,000=10 mg/L)) is on record as 7 mg/kg. Also, in data set [7] (tumescent lidocaine, TLA without liposuction, adults), the “maximum safe mg/kg dosage (estimated)” value is listed as about 30 mg/kg. Besides, the MIC in data set [8] is about 5000 µg/mL (≈ 21.3 mM). Moreover, the “lidocaine concentration that consistently inhibits in-vitro platelet aggregation” value in data set [1] (aggregation induced by ADP, epinephrine and collagen) was at least 0.5 mg/mL. For the same molecule, the “effect on platelet aggregation” value in data set [1] (at safe systemic concentrations (e.g. ≤6 micrograms/ml)) is given as “no effect”. Moreover, the “platelet aggregation induced by ADP” value in data set [1] was “inhibit”.

Take `CCOC(=O)c1ccc(N)cc1` [benzocaine]: the “platelet aggregation induced by ADP” value in [1] is listed as “inhibit”.

For `Cc1ncc([N+](=O)[O-])n1CCO` [Metronidazole], the “interval in which serum concentration of metronidazole exceeded 4 μg/ml” value in “clinical” (female) was 0 to 12 h. Besides, in “clinical” (female), the “interval in which serum concentration of metronidazole exceeds 4 μg/ml” value fell in the range of 0 to 12 h. The AUC was found to be 122 µg·h/mL in the data set “clinical” (female, 500 mg, AUC[Serum]IVAD, metronidazole, Study 4, IVAD dose 500 mg); 67 µg·h/mL in “clinical” (female, 500 mg, AUC[Serum]TAD); 2600 µg·h/mL in “clinical” (female, 500 mg, AUC[TISF]TAD); 127 µg·h/mL in “clinical” (female, 600 mg, AUC[Serum]IVAD, metronidazole, Study 5, IVAD dose 600 mg); 81 µg·h/mL in the data set “clinical” (female, 600 mg, AUC[Serum]TAD); 1030 µg·h/mL in the data set “clinical” (female, 600 mg, AUC[TISF]TAD, metronidazole, Study 5 (Abdomen) TAD1: 600 mg, 172 mg/L in TAD). The “ER3 = ER1/ER2 = AUC[TISF]TAD/AUC[Serum]TAD” value came to 38.8 in the data set “clinical” (500 mg) and 12.7 in “clinical” (600 mg).

For `Cc1nnc(SCC2=C(C(=O)O)N3C(=O)[C@@H](NC(=O)Cn4cnnn4)[C@H]3SC2)s1` [Cefazolin], the “MRSA growth (MBC test)” value was “+” in [6] (Day 1, Cefazolin 62.5 mg/L, MRSA inoculum 4.7 × 10^5 CFU/ml); “+” in [6] (Day 1, Cefazolin 125 mg/L, MRSA inoculum 4.7 × 10^5 CFU/ml); 0 in [6] (Day 1, Cefazolin 250 mg/L, MRSA inoculum 4.7 × 10^5 CFU/ml); “+” in data set [6] (Day 2, Cefazolin 62.5 mg/L, MRSA inoculum 4.4 × 10^5 CFU/ml); “+” in data set [6] (Day 2, Cefazolin 125 mg/L, MRSA inoculum 4.4 × 10^5 CFU/ml); 0 in data set [6] (Day 2, Cefazolin 250 mg/L, MRSA inoculum 4.4 × 10^5 CFU/ml).

For orientation: MIC means the lowest concentration found to suppress growth. One may read the AUC as concentration integrated over time. Lower therefore signals less exposure.

The record behind these values is patent publication US11213481B2, “Tumescent drug delivery” (priority 2004, dated 2022).
